The IC50 is the concentration that gives 50% inhibition.

Molecules are shown by their SMILES. Read-outs that look alike come from different tables or passages of the source.

Among the data in patent US9776979B2, “EBI2 modulators” (Sanford-Burnham Medical Research Institute, priority 2013, dated 2017) are IC50 values, retold here.

The target of this test is EBI2 (Homo sapiens, UniProt P32249). Kind of test: Cell-based luminescent assay (EBI2 modulation). The procedure, abridged:
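Cells plated overnight at 37° C, then exposed to compound at 4-5 uM final with 80 nM 7a,25-OHC agonist for 60 min at 37° C. Luminescence read after 60 min detection at 25° C in the dark; values normalized to neutral and stimulator controls and plate-pattern corrected.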

[1] abbreviates: cell-based luminescence, 7a,25-OHC final assay concentration 80 nM, 60 minutes incubation, read-out: IC50.

Chain of EBI2 (P32249 whole entry): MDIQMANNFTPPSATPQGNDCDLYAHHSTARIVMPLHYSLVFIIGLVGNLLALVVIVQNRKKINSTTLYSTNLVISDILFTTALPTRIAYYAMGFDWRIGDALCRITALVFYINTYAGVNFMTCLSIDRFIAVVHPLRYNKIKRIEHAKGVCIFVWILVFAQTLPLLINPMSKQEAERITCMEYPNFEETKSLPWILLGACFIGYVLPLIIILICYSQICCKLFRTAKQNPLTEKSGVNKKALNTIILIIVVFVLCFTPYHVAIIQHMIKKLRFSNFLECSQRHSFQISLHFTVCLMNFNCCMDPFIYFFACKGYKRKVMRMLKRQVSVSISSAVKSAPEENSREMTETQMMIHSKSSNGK

On to `CC(C)c1ccc(S(=O)(=O)N2CCN(C(=O)/C=C/c3ccc(F)cc3)CC2)cc1` [Compound C261, (2E)-3-(4-fluorophenyl)-1-(4-{[4-(methylethyl)phenyl]sulfonyl}piperazinyl)prop-2-en-1-one], for which the IC50 under setting [1] was less than 0.1 µM.
`O=C(C#Cc1cccc(Cl)c1Cl)N1CCN(Cc2ccc(F)cc2)CC1` [Compound C262, 3-(2,3-dichlorophenyl)-1-{4-[(4-fluorophenyl)methyl]piperazinyl}prop-2-yn-1-one]: under setting [1], the IC50 was less than 0.1 µM.
On the same count and under the same terms, as for `O=C(c1cc2c(F)cc(F)cc2[nH]1)N1CCN(C(c2ccccc2)c2ccccc2)CC1` [Compound C263, 4,6-difluoroindol-2-yl 4-(diphenylmethyl)piperazinyl ketone], the figure is less than 0.1 µM; as for `O=C(c1ccc(Br)cc1)N1CCN(C(=O)c2cc3ccc(Br)cc3[nH]2)CC1` [Compound C264, 6-bromoindol-2-yl 4-[(4-bromophenyl)carbonyl]piperazinyl ketone], less than 0.1 µM.
Regarding `O=C(/C=C/c1cccc(C(F)(F)F)c1)N1CCN(C(c2ccccc2)c2ccccc2)CC1` [Compound C265, (2E)-1-[4-(diphenylmethyl)piperazinyl]-3-[3-(trifluoromethyl)phenyl]prop-2-en-1-one], the IC50 under setting [1] was less than 0.1 µM.
On the same count and under the same terms, as for `O=C(C#Cc1ccc2c(c1)OCO2)N1CCN(C(=O)c2ccc(C(F)(F)F)cc2)CC1` [Compound C266, 3-(2H-benzo[3,4-d]1,3-dioxolen-5-yl)-1-(4-{[4-(trifluoromethyl)phenyl]carbonyl}piperazinyl)prop-2-yn-1-one], the figure is less than 0.1 µM.
The same measure, in the same setting: as for `O=C(/C=C/c1ccc(Br)cc1)N1CCN(C(=O)c2cccc(B(O)O)c2)CC1` [Compound C267, (E)-(3-(4-(3-(4-bromophenyl)acryloyl)piperazine-1-carbonyl)phenyl)boronic acid], the figure is less than 0.1 µM; as for `O=C(c1ccc(F)cc1)N1CCN(C(=O)c2cc3ccc(Cl)cc3[nH]2)CC1` [Compound C268, 6-chloroindol-2-yl 4-[(4-fluorophenyl)carbonyl]piperazinyl ketone], less than 0.1 µM; as for `O=C(/C=C/c1ccc(Br)cc1)N1CCN(Cc2ccccc2F)CC1` [Compound C269, (2E)-3-(4-bromophenyl)-1-{4-[(2-fluorophenyl)methyl]piperazinyl}prop-2-en-1-one], less than 0.1 µM.
Still for that read-out and setting: as for `O=C(/C=C/c1ccccc1)N1CCN(CCc2ccc(Cl)cc2)CC1` [Compound C270, (2E)-1-{4-[2-(4-chlorophenyl)ethyl]piperazinyl}-3-phenylprop-2-en-1-one], the figure is less than 0.1 µM; as for `O=C(c1cccc(C(F)(F)F)c1)N1CCN(C(=O)c2cc3cc(C(F)(F)F)ccc3[nH]2)CC1` [Compound C271, 5-(trifluoromethyl)indol-2-yl 4-{[3-(trifluoromethyl)phenyl]carbonyl}piperazinyl ketone], less than 0.1 µM; as for `O=C(c1cc2cc(Cl)ccc2[nH]1)N1CCC(Oc2cccc(Cl)c2)CC1` [Compound C272, 5-chloroindol-2-yl 4-(3-chlorophenoxy)piperidyl ketone], less than 0.1 µM.
Take `O=C(c1cc2cc(Cl)ccc2[nH]1)N1CCC(Nc2cc(F)cc(F)c2)CC1` [Compound C273, 4-[(3,5-difluorophenyl)amino]piperidyl 5-chloroindol-2-yl ketone]: the IC50 is less than 0.1 µM.
Turning to `COc1ccc(CN2CCN(C(=O)C#Cc3ccc(Br)cc3)CC2)cc1` [Compound C274, 3-(4-bromophenyl)-1-{4-[(4-methoxyphenyl)methyl]piperazinyl}prop-2-yn-1-one], the IC50 under setting [1] was less than 0.1 µM.
For `O=C(c1cnc2ccccc2n1)N1CCN(C(c2ccccc2)c2ccccc2)CC1` [Compound C276, 4-(diphenylmethyl)piperazinyl quinoxalin-2-yl ketone], the half-maximal inhibitory concentration (IC50) under setting [1] is 0.1 to 0.5 µM.
`O=C(/C=C/c1ccccc1C(F)(F)F)N1CCN(S(=O)(=O)c2ccc(Br)cc2)CC1` [Compound C277, (2E)-1-{4-[(4-bromophenyl)sulfonyl]piperazinyl}-3-[2-(trifluoromethyl)phenyl]prop-2-en-1-one]: under setting [1], the IC50 lay in the range of 0.1 to 0.5 µM.
With `O=C(c1cc2ccccn2n1)N1CCN(C(=O)c2cc3cc(Cl)ccc3[nH]2)CC1` [Compound C278, 5-chloroindol-2-yl 4-(8-hydropyrazolo[1,5-a]pyridin-2-ylcarbonyl)piperazinyl ketone], the IC50 under setting [1] was 0.1 to 0.5 µM.
On the same count and under the same terms, as for `O=C(c1cn2ccccc2n1)N1CCN(C(=O)c2cc3cc(Cl)ccc3[nH]2)CC1` [Compound C279, 5-chloroindol-2-yl 4-(4-hydroimidazo[1,2-a]pyridin-2-ylcarbonyl)piperazinyl ketone], the figure is 0.1 to 0.5 µM.
The same measure, in the same setting: as for `COc1cc2cc(C(=O)N3CCN(C(c4ccccc4)c4ccccc4)CC3)[nH]c2cc1OC` [Compound C280, 5,6-dimethoxyindol-2-yl 4-(diphenylmethyl)piperazinyl ketone], the figure is 0.1 to 0.5 µM.
The same measure, in the same setting: as for `O=C(C#Cc1cccc(Cl)c1Cl)N1CCN(Cc2ccc(C(F)(F)F)cc2)CC1` [Compound C281, 3-(2,3-dichlorophenyl)-1-(4-{[4-(trifluoromethyl)phenyl]methyl}piperazinyl)prop-2-yn-1-one], the figure is 0.1 to 0.5 µM; as for `NC(=O)c1ccc(C(=O)N2CCN(C(=O)c3cc4cc(Cl)ccc4[nH]3)CC2)cc1` [Compound C282, 4-({4-[(5-chloroindol-2-yl)carbonyl]piperazinyl}carbonyl)benzamide], 0.1 to 0.5 µM; as for `O=C(c1ccc2nc(C(F)F)[nH]c2c1)N1CCN(C(c2ccccc2)c2ccccc2)CC1` [Compound C283, 2-(difluoromethyl)benzimidazol-5-yl 4-(diphenylmethyl)piperazinyl ketone], 0.1 to 0.5 µM.
Take `O=C(C#Cc1ccc(Cl)c(Cl)c1)N1CCN(Cc2ccc(F)cc2)CC1` [Compound C284, 3-(3,4-dichlorophenyl)-1-{4-[(4-fluorophenyl)methyl]piperazinyl}prop-2-yn-1-one]: the IC50 under setting [1] lay within 0.1 to 0.5 µM.
On the same count and under the same terms, as for `O=C(c1cc2cc(Cl)ccc2[nH]1)N1CCN(C(=O)c2cccnc2Cl)CC1` [Compound C285, 4-[(2-chloro(3-pyridyl))carbonyl]piperazinyl 5-chloroindol-2-yl ketone], the figure is 0.1 to 0.5 µM.
On the same count and under the same terms, as for `Cn1c(C(=O)N2CCN(C(=O)OC(C)(C)C)CC2)cc2ccccc21` [Compound C286, tert-butyl 4-[(1-methylindol-2-yl)carbonyl]piperazinecarboxylate], the figure is 0.1 to 0.5 µM; as for `O=C(C#Cc1ccc(F)cc1)N1CCN(C(=O)c2ccc(F)cc2C(F)(F)F)CC1` [Compound C287, 3-(4-fluorophenyl)-1-(4-{[4-fluoro-2-(trifluoromethyl)phenyl]carbonyl}piperazinyl)prop-2-yn-1-one], 0.1 to 0.5 µM.
Still for that read-out and setting: as for `O=C(c1cc2cc(Cl)ccc2[nH]1)N1CCN(C(=O)c2nc3ccccc3[nH]2)CC1` [Compound C288, 4-(benzimidazol-2-ylcarbonyl)piperazinyl 5-chloroindol-2-yl ketone], the figure is 0.1 to 0.5 µM; as for `O=C(c1cc2cc(Cl)ccc2[nH]1)N1CCC(Oc2ccccn2)CC1` [Compound C289, 5-chloroindol-2-yl 4-(2-pyridyloxy)piperidyl ketone], 0.1 to 0.5 µM; as for `O=C(c1csc2ccccc12)N1CCN(C(c2ccccc2)c2ccccc2)CC1` [Compound C290, benzo[b]thiophen-3-yl 4-(diphenylmethyl)piperazinyl ketone], 0.1 to 0.5 µM.
In the case of `O=C(c1ccc(C(F)(F)F)cc1)N1CCN(C(=O)c2cc3ccc(F)cc3[nH]2)CC1` [Compound C292, 6-fluoroindol-2-yl 4-{[4-(trifluoromethyl)phenyl]carbonyl}piperazinyl ketone], the IC50 under setting [1] was 0.1 to 0.5 µM.
Still for that read-out and setting: as for `O=C(c1cc2ccc(Br)cc2[nH]1)N1CCN(Cc2ccc(F)cc2)CC1` [Compound C293, 6-bromoindol-2-yl 4-[(4-fluorophenyl)methyl]piperazinyl ketone], the figure is 0.1 to 0.5 µM; as for `O=C(C#Cc1cc(F)cc(F)c1)N1CCN(Cc2ccc(Cl)cc2)CC1` [Compound C294, 3-(3,5-difluorophenyl)-1-{4-[(4-chlorophenyl)methyl]piperazinyl}prop-2-yn-1-one], 0.1 to 0.5 µM; as for `CCN1CCN(C(=O)c2cc3cc(Cl)ccc3[nH]2)CC1` [Compound C295, 5-chloroindol-2-yl 4-ethylpiperazinyl ketone], 0.1 to 0.5 µM.
Same read-out and setting: as for `O=C(c1ccc2nc[nH]c2c1)N1CCN(C(c2ccccc2)c2ccccc2)CC1` [Compound C296, benzimidazol-5-yl 4-(diphenylmethyl)piperazinyl ketone], the figure is 0.1 to 0.5 µM; as for `O=C(C=Cc1ccc2c(c1)OCO2)N1CCN(Cc2ccc(Cl)cc2)CC1` [Compound C297, 3-(2H-benzo[3,4-d]1,3-dioxolan-5-yl)-1-{4-[(4-chlorophenyl)methyl]piperazinyl}prop-2-en-1-one], 0.1 to 0.5 µM; as for `O=C(C=Cc1ccc2c(c1)OCO2)N1CCN(Cc2ccc(Br)cc2)CC1` [Compound C298, 3-(2H-benzo[3,4-d]1,3-dioxolan-5-yl)-1-{4-[(4-bromophenyl)methyl]piperazinyl}prop-2-en-1-one], 0.1 to 0.5 µM.
For `O=C(c1ccc2nc(C(F)(F)F)[nH]c2c1)N1CCN(C(c2ccccc2)c2ccccc2)CC1` [Compound C299, 4-(diphenylmethyl)piperazinyl 2-(trifluoromethyl)benzimidazol-5-yl ketone], under setting [1], the IC50 lay within 0.1 to 0.5 µM.
For `O=C(/C=C/c1ccc(Cl)cc1F)N1CCN(C(=O)c2cc3cc(Cl)ccc3[nH]2)CC1` [Compound C300, (2E)-3-(4-chloro-2-fluorophenyl)-1-{4-[(5-chloroindol-2-yl)carbonyl]piperazinyl}prop-2-en-1-one], the IC50 under setting [1] is less than 0.1 µM.
The same measure, in the same setting: as for `O=C(c1ccc2cc3ccccc3cc2c1)N1CCN(C(c2ccccc2)c2ccccc2)CC1` [Compound C301, 2-anthryl 4-(diphenylmethyl)piperazinyl ketone], the figure is less than 0.1 µM.
